Reference: patent US10172814B2, “Substituted pyridyl-cycloalkyl-carboxylic acids, compositions containing them and medical uses thereof” (BAYER PHARMA AKTIENGESELLSCHAFT, priority 2014, dated 2019)

These compounds were tested against human PTGES (Homo sapiens (Human), UniProt O14684) (assay: Human PTGES biochemical enzyme inhibition assay (conversion of PGH2 to PGE2, TR-FRET)). Conditions: Enzymatic conversion of PGH2 to PGE2; read-out: Human PTGES IC50.
Experimental: Human PTGES Biochemical Enzyme Inhibition Assay:
PTGES (Microsomal prostaglandin E synthase 1) is an enzyme that converts prostaglandin H2 (PGH2) to prostaglandin E2 (PGE2) in the presence of reduced glutathione (GSH).
Recombinant proteins (human isoforms) of PTGES containing a FLAG tag, expressed in baculovirus infected insect cells (Hi-5) and purified by affinity chromatography was used as enzyme in the assay. Substrate was prostaglandin H2 (Cayman Chemicals).
4 ul of a solution of human PTGES in assay buffer [100 mM sodium phosphate pH 7.2, 2.5 mM Glutathion reduced, 1 mM EDTA, 0.01% BSA, 0.4 mM DTT, 0.15 mM n-dodecylmaltoside] was added to the well containing test compound and incubated for 15-20 minutes to allow binding of the compound to the enzyme prior to the enzymatic reaction. The reaction was started by addition of 1 ul of an ice cold solution containing PGH2 (40 nM in assay buffer resulting in a final concentration of 8 nM PGH2 in the assay). […] The concentration of each isoform of PTGES was adapted to the activity of the respective enzyme preparation to maintain linear reaction properties within the reaction time. […] The reaction was stopped by addition of 1 ul of a solution containing 15 mM SnCl2 and 400 mM KF in water. SnCl2 converts the remaining unstable PGH2 to stable PGF2alpha. Then, 3 ul of the a first detection solution containing PGE2-D2 (Cisbio Bioassays, TR-FRET reagent, diluted according to the manufacturer's recommendation, typically 1:20 in reconstitution buffer) was added. […] The resulting mix was incubated overnight at 4° C. to allow the formation of a complex of PGE2 and the detection reagents. […] Dilution series were made prior to the assay in a 100 fold concentrated form by serial dilution. IC50 values were calculated by 4-Parameter fitting.

human PTGES, sequence (O14684 whole entry): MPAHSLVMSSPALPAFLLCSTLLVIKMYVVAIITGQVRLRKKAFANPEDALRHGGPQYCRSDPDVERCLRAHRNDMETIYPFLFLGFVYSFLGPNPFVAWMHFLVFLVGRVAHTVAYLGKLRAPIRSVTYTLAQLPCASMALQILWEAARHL

| Structure (SMILES) | IC50 [nM] |
| --- | --- |
| Cc1c(CCC(=O)O)cccc1NC(=O)C(c1ccc(-c2cncc(C(F)(F)F)c2)c(F)c1)C1CCCC1 (racemic) [Example 47, (R/S) 3-{3-[(Cyclopentyl{3-fluoro-4-[5-(trifluoromethyl)pyridin-3-yl]phenyl}acetyl)amino]-2-methylphenyl}propanoic acid] | 15.9 |
| Cc1c(CCC(=O)O)cccc1NC(=O)C(c1ccc(-c2cncc(C(F)F)c2)c(F)c1)C1CCCC1 (racemic) [Example 50, (R/S) 3-{3-[(cyclopentyl{4-[5-(difluoromethyl)pyridin-3-yl]-3-fluorophenyl}acetyl)amino]-2-methylphenyl}propanoic acid] | 42.9 |
| CCOc1cncc(-c2ccc(C(C(=O)Nc3cccc(CCC(=O)O)c3C)C3CCCC3)c(F)c2)c1 (racemic) [Example 52, (R/S) 3-[3-({Cyclopentyl[4-(5-ethoxypyridin-3-yl)-2-fluorophenyl]acetyl}amino)-2-methylphenyl]propanoic acid] | 273 |
| Cc1c(CCC(=O)O)cccc1NC(=O)C(c1ccc(-c2cncc(C(F)(F)F)c2)cc1F)C1CCCC1 (racemic) [Example 53, (R/S) 3-{3-[(Cyclopentyl{2-fluoro-4-[5-(trifluoromethyl)pyridin-3-yl]phenyl}acetyl)amino]-2-methylphenyl}propanoic acid] | 53.3 |
| Cc1c(CCC(=O)O)cccc1NC(=O)C(c1ccc(-c2cncc(C(F)(F)F)c2)cc1)C1CCC1 (racemic) [Example 54, (R/S) 3-{3-[(Cyclobutyl{4-[5-(trifluoromethyl)pyridin-3-yl]phenyl}acetyl)amino]-2-methylphenyl}propanoic acid] | 27.3 |
| CCOc1cncc(-c2ccc(C(C(=O)Nc3cccc(CCC(=O)O)c3C)C3CCC3)cc2)c1 (racemic) [Example 58, (R/S) 3-[3-({Cyclobutyl[4-(5-ethoxypyridin-3-yl)phenyl]acetyl}amino)-2-methylphenyl]propanoic acid] | 210 |
| Cc1cc(-c2ccc(C(C(=O)Nc3cccc(CCC(=O)O)c3C)C3CCC3)cc2)cnc1C (racemic) [Example 59, (R/S) 3-[3-({Cyclobutyl[4-(5,6-dimethylpyridin-3-yl)phenyl]acetyl}amino)-2-methylphenyl]propanoic acid] | 193 |
| Cc1c(CCC(=O)O)cccc1NC(=O)C(c1ccc(-c2cncc(F)c2)cc1)C1CCC1 (racemic) [Example 60, (R/S) 3-[3-({Cyclobutyl[4-(5-fluoropyridin-3-yl)phenyl]acetyl}amino)-2-methylphenyl]propanoic acid] | 478 |
| Cc1ncc(-c2ccc(C(C(=O)Nc3cccc(CCC(=O)O)c3C)C3CCC3)cc2)cc1Cl (racemic) [Example 61, (R/S) 3-[3-({[4-(5-chloro-6-methylpyridin-3-yl)phenyl](cyclobutyl)acetyl}amino)-2-methylphenyl]propanoic acid] | 32.2 |
| Cc1ncc(-c2ccc(C(C(=O)Nc3cccc(CCC(=O)O)c3C)C3CCC3)cc2)cc1F (racemic) [Example 62, (R/S) 3-[3-({[4-(5-Fluoro-6-methylpyridin-3-yl)phenyl](cyclobutyl)acetyl}amino)-2-methylphenyl]propanoic acid] | 148 |
| Cc1c(CCC(=O)O)cccc1NC(=O)C(c1ccc(-c2cncc(OC(F)F)c2)cc1)C1CCC1 (racemic) [Example 63, (R/S) 3-{3-[(Cyclobutyl{4-[5-(difluoromethoxy)pyridin-3-yl]phenyl}acetyl)amino]-2-methylphenyl}propanoic acid] | 103 |
| Cc1cncc(-c2ccc(C(C(=O)Nc3cccc(CCC(=O)O)c3C)C3CCC3)cc2)c1 (racemic) [Example 64, (R/S) 3-[3-({Cyclobutyl[4-(5-methylpyridin-3-yl)phenyl]acetyl}amino)-2-methylphenyl]propanoic acid] | 344 |
| Cc1c(CCC(=O)O)cccc1NC(=O)C(c1ccc(-c2cncc(Cl)c2)cc1)C1CCCCC1 (racemic) [Example 65, (R/S) 3-[3-({[4-(5-Chloropyridin-3-yl)phenyl](cyclohexyl)acetyl}amino)-2-methylphenyl]propanoic acid] | 196 |
